Measurements taken from PubChem BioAssay (NCI).
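Values below derive from 48-hour exposures of cells grown in 96-well plates, with endpoints linearly interpolated between the two concentrations bracketing the appropriate inhibition level. The concentration for 50% growth inhibition is given as GI50. Definition used: TGI = concentration required for complete inhibition of growth.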

Key:
Assay in all cases: NCI anticancer screen, dose series, 48 h
ACHN renal = tested on: ACHN renal
HCC-2998 colon = tested on: HCC-2998 colon
HL-60(TB) leukemia = tested on: HL-60(TB) leukemia
KM12 colon = tested on: KM12 colon
SK-MEL-2 melanoma = tested on: SK-MEL-2 melanoma
SK-OV-3 ovarian = tested on: SK-OV-3 ovarian
SN12C renal = tested on: SN12C renal
SNB-19 CNS = tested on: SNB-19 CNS

| SMILES | GI50 (ACHN renal) [µM] | TGI (ACHN renal) [µM] | GI50 (HCC-2998 colon) [µM] | TGI (HCC-2998 colon) [µM] | GI50 (HL-60(TB) leukemia) [µM] | TGI (HL-60(TB) leukemia) [µM] | GI50 (KM12 colon) [µM] | TGI (KM12 colon) [µM] | GI50 (SK-MEL-2 melanoma) [µM] | TGI (SK-MEL-2 melanoma) [µM] | GI50 (SK-OV-3 ovarian) [µM] | TGI (SK-OV-3 ovarian) [µM] | GI50 (SN12C renal) [µM] | TGI (SN12C renal) [µM] | GI50 (SNB-19 CNS) [µM] | TGI (SNB-19 CNS) [µM] |
| --- | --- | --- | --- | --- | --- | --- | --- | --- | --- | --- | --- | --- | --- | --- | --- | --- |
| CCCCCCCCCCCCCCCCCC[n+]1ccc2c(C)c3c(c(C)c2c1)c1cc(O)ccc1n3CC | 3.51 | 19.6 | 2.9 | 20.6 | 2.33 | 12.4 | 2.01 | > 100 | 1.58 | 3.27 | 1.84 | 7.6 | 1.79 | 6.08 | 1.79 | 6.36 |
| NC(CSC1c2ccccc2-c2ccccc21)C(=O)O (stereo not given) | – | > 100 | – | – | – | > 100 | – | > 100 | – | > 100 | – | > 100 | – | > 100 | – | > 100 |
| CC(C)NCCCn1c(Sc2cc3c(cc2I)OCO3)nc2c(N)ncnc21 | 0.297 | > 100 | 0.28 | 11.6 | 0.0637 | 6.91 | 0.0592 | 0.755 | 0.357 | > 83.2 | 0.0451 | > 100 | 0.174 | > 100 | 0.646 | > 100 |
| O=C1NC(=O)C(N2C(=O)c3ccccc3C2=O)CC1O (stereo not given) | > 100 | > 100 | – | – | > 100 | > 100 | > 100 | > 100 | > 100 | > 100 | > 100 | > 100 | > 100 | > 100 | > 100 | > 100 |
| CNCCCNCCCCNCCCN1C(=O)c2ccc3c4c(ccc(c24)C1=O)C(=O)N(CCCNCc1ccccc1OC)C3=O | 2.86 | 30.1 | 3.12 | 20.2 | 3.68 | 23.4 | 2.75 | 17.4 | 4.46 | 18.8 | 6.19 | 61.5 | 2.95 | 20.5 | 3.79 | 17.2 |
| COc1ccc2cc1Oc1ccc(cc1)C[C@H]1c3c(cc4c(c3Oc3cc5c(cc3OC)CCN(C)[C@@H]5C2)OCO4)CCN1C | 4.59 | 10.6 | 1.65 | 8.26 | 3.54 | 11.9 | 4.83 | 13.2 | 4.13 | 11.2 | 6.23 | 12.5 | 3.55 | 10.6 | 3.53 | 14.6 |
| COc1ccc(-c2cc(-c3ccc(C)cc3)nc3nc(=S)[nH]c(N)c23)cc1 | 18.8 | 62.5 | 23.6 | 42.9 | – | – | 16.2 | 36 | 19 | 41 | 40.4 | > 100 | 20.5 | 48.6 | 37.6 | > 100 |
| COc1ccc2c(c1)N(CCO)C1=C(C(=O)OC1)C2c1cccc(F)c1 (stereo not given) | 0.386 | > 50 | 1.07 | > 50 | 0.161 | 0.781 | 0.255 | > 50 | 0.801 | > 36.2 | 1.26 | > 50 | 0.776 | > 50 | 0.288 | > 50 |
| O=c1[nH]c(=O)n(C2CC(O)C(COP(=O)(OCc3ccc([N+](=O)[O-])o3)N(CCCCCl)CC(O)CO)O2)cc1F (stereo not given) | < 0.0216 | 12.6 | 0.401 | > 100 | 0.0262 | > 100 | 1.87 | > 100 | > 73.8 | > 100 | > 100 | > 100 | < 0.0496 | – | > 20.3 | > 100 |
| CCOC(=O)C1=C(C)N(c2ccc(Cl)cc2)[C@]2(C#N)C(O)=C(Cl)C(Cl)=C(O)[C@]12C#N | 31.6 | > 100 | – | – | 88.2 | > 100 | 47.9 | > 100 | > 100 | > 100 | 69.6 | > 100 | > 100 | > 100 | > 100 | > 100 |
| CN1CCN(C(=O)c2cc(-c3ccc4ncnc(N5CCc6cc(F)c(Cl)cc65)c4c3)cnc2N)CC1 | 0.27 | 5.78 | 0.242 | 1.65 | 0.0535 | 0.409 | 0.312 | 1.83 | 0.238 | 1.02 | 0.382 | 2.21 | 0.15 | 10.5 | 0.413 | 10.5 |
| O=C(O)c1ccc(C(=O)c2ccccc2)c(C(=O)O)c1 | – | > 100 | – | > 100 | – | > 100 | – | > 100 | – | > 100 | – | > 100 | – | > 100 | – | > 100 |
| CC(=O)/C=C/c1cn(C(=O)OC(C)(C)C)c2ccc(Br)cc12 | 11.6 | 24.8 | 18 | 37.4 | 29.6 | > 100 | 13.8 | 29.1 | 20.9 | 54.6 | 20.6 | 46.7 | 13.8 | 36.4 | 15.4 | 30.1 |
| COc1cc2c(cc1OCCCn1c(-c3ccccn3)nc3ccccc31)N=C[C@@H]1CCCN1C2=O | 2.23 | 6.28 | 1.13 | 2.65 | 4.45 | > 24.6 | 1.9 | 4.1 | 1.52 | 3.94 | 4.23 | 19.6 | 3.05 | 15.1 | 3.61 | 18.1 |
| O=C1c2c(c3c4ccccc4[nH]c3c3ccc4ccccc4c23)C(=O)N1CCN1CCNCC1 | 1.56 | 2.9 | 1.63 | 3.15 | 1.61 | 3.5 | 1.5 | 3.07 | 2.03 | 4.7 | 1.86 | 3.58 | 1.68 | 3.13 | 1.6 | 2.99 |
| CCc1ccc2c(c1)N(CCO)C1=C(C(=O)OC1)C2c1cccc(Br)c1 (stereo not given) | 1.61 | 20.4 | 1.05 | 7.82 | 0.317 | 2.21 | 0.336 | 12.5 | 0.3 | 7.14 | 0.42 | 10.1 | 1.35 | 18.9 | 0.806 | 18.4 |

| SMILES | GI50 (ACHN renal) [µM] | TGI (ACHN renal) [µM] | GI50 (HCC-2998 colon) [µM] | TGI (HCC-2998 colon) [µM] | GI50 (HL-60(TB) leukemia) [µM] | TGI (HL-60(TB) leukemia) [µM] | GI50 (KM12 colon) [µM] | TGI (KM12 colon) [µM] | GI50 (SK-MEL-2 melanoma) [µM] | TGI (SK-MEL-2 melanoma) [µM] | GI50 (SK-OV-3 ovarian) [µM] | TGI (SK-OV-3 ovarian) [µM] | GI50 (SN12C renal) [µM] | TGI (SN12C renal) [µM] | GI50 (SNB-19 CNS) [µM] | TGI (SNB-19 CNS) [µM] |
| --- | --- | --- | --- | --- | --- | --- | --- | --- | --- | --- | --- | --- | --- | --- | --- | --- |
| COc1cc2c3c(n(C)c(=O)c2cc1OC)-c1cc2c(cc1/C3=C\CCCCN1C(=O)c3ccccc3C1=O)OCO2 | 1.8 | 10.9 | 12.2 | 58.7 | – | – | 59.3 | > 100 | – | – | 13.5 | 45.7 | – | – | 36.6 | > 100 |
| O=S(=O)(Nc1cc(Sc2cccc3cccnc23)c(O)c2ccccc12)c1ccc(F)cc1 | 1.34 | 7.78 | 4.8 | 15.6 | 2.12 | 5.88 | 2.48 | 14.2 | 1.84 | 7.52 | 3.23 | 13.4 | 0.97 | 3.61 | 2.55 | 17.1 |
| CN1C(=O)N(C)C2C1NN=c1s/c(=C\c3ccc(C(F)(F)F)cc3)c(=O)n12 (stereo not given) | 2.08 | 38.5 | 2.68 | > 100 | 0.413 | 18.6 | 0.705 | > 100 | 2.59 | 24.1 | 3.96 | 46.9 | 3.89 | > 100 | 2.62 | > 100 |
| O=C(O)CN1CCN(CC(=O)O)CC(=O)[O][Hg][O]C(=O)C1 | 19.6 | 34.2 | – | – | 13.7 | 34.7 | > 100 | > 100 | 15.5 | 29.6 | > 92.2 | > 100 | 18.5 | 34.8 | 29.8 | > 100 |
| O=C(/C=C\c1cccc([N+](=O)[O-])c1)/C=C/c1cccc([N+](=O)[O-])c1 | 4.47 | > 100 | 2.6 | 6.9 | – | – | 1.73 | 3.3 | 19.5 | 49.4 | 20 | > 100 | 67 | > 100 | 16.4 | > 100 |
| OCc1ccc(N2CCCC2c2ccccc2)cc1Cl (stereo not given) | 11.7 | 26.9 | 4.88 | 17.5 | 3.07 | 11.1 | 4.17 | 19.4 | 2.31 | 6.97 | 2.89 | 13 | 8.22 | 21.7 | 13.5 | > 84 |
| COc1cc2c(cc1C1COc3cc4occc4cc3C1=O)OCO2 (stereo not given) | – | > 100 | – | > 100 | – | – | – | > 100 | – | > 100 | – | > 100 | – | > 100 | – | > 100 |
| O=C(NN1C(=O)CSC12CCCCC2)c1[nH]c2ccc(Br)cc2c1-c1ccccc1 | 22.6 | 58.1 | 25.2 | 70.4 | – | – | 16.9 | 33.4 | 36.2 | > 100 | 46.3 | > 100 | 17.6 | 34.9 | 24.1 | 64.2 |
| COc1cccc(OC(=O)c2ccc(C(F)(F)F)nc2Nc2cc(Cl)ccc2C)c1 | 15.6 | > 100 | – | – | – | – | 20.6 | 50 | 12.9 | 50.2 | 11.1 | 80.7 | 29.2 | > 100 | > 100 | > 100 |
| C1CCC([PH+](C2CCCCC2)C2CCCCC2[PH+](C2CCCCC2)C2CCCCC2)CC1.[Au].[CH-]1CCCCC1CC1CCCC[N-]1 (stereo not given) | 0.902 | 2.1 | 0.404 | 1.49 | 0.277 | 0.833 | – | – | 0.398 | 1.38 | 0.355 | 1.36 | 0.285 | 2.93 | 0.327 | 1.46 |
| Cc1cc(S(=O)(=O)/N=C(/N)Nc2ccccc2O)c(SCc2ccccc2)cc1Cl | 13 | 27.4 | 14.5 | 29.7 | 4.22 | > 100 | 12.6 | 32.5 | 10.6 | 26.2 | – | – | 14.3 | 30.4 | 16.6 | 34 |
| CO[C@H]1CC(O[C@@H]2/C(C)=C/C[C@@H]3C[C@@H](C[C@]4(C=C[C@H](C)[C@@H](C5CCCCC5)O4)O3)OC(=O)[C@@H]3C=C(C)[C@@H](O)[C@H]4OC/C(=C\C=C\[C@@H]2C)[C@]43O)O[C@@H](C)C1O[C@H]1C[C@H](OC)[C@@H](O)[C@H](C)O1 (stereo not given in full) | 1.66 | 3.04 | 1.51 | 3 | – | – | 1.77 | 3.54 | – | – | 1.97 | 3.61 | – | – | 2.03 | 6.52 |
| OCC12C3C4C5C3C1C5C42 (stereo not given) | – | > 100 | – | – | – | > 100 | – | – | – | > 100 | – | > 100 | – | > 100 | – | > 100 |
| O=C1c2cccnc2C(=O)c2c1c(C(=O)NCCCN1CCCCC1)c1ccccn21 | 0.464 | 2.84 | 0.529 | 2.04 | – | – | 0.99 | 10.1 | 2.05 | 5.17 | 2.06 | 6.7 | 0.472 | 1.84 | 1.12 | 2.57 |
| FC(F)(F)c1ccc(-c2cnc(-c3ncon3)nc2NC2CCCCCC2)cc1 | 48.6 | > 100 | 56.6 | > 100 | 22.3 | 48 | 36.3 | > 100 | – | – | > 100 | > 100 | 21.4 | 63 | 29.2 | > 100 |
| O=C1c2ccccc2-c2cc([N+](=O)[O-])c([N+](=O)[O-])cc21 | – | 3.07 | – | – | – | 3.97 | – | 3.51 | – | 3.66 | – | 6.51 | – | 3.42 | – | 3.36 |
